Source: patent US8933195B2, “Histone deacetylase inhibitors and synthetic method thereof and use thereof in manufacture of medicaments” (Nanjing Yoko Biomedical R & D Ltd., priority 2011, dated 2015)

Experiments:
[1] = tested on: Human Blood Acute Monocytic Leukemia U937; test: Subcutaneously transplanted tumors in nude mice; type: in vivo; conditions: 20 mg/kg
Method: (§1) Tumor tissues in the vigorous growth period are cut into about 1.5 mm^3, and inoculated to the right axilla subcutaneous layer of the nude mice under aseptic conditions. For the subcutaneously transplanted tumors of the nude mice, the diameter of the transplanted tumors is measured by a vernier caliper. The mice are randomly grouped after the tumors grow to 100-200 mm^3. […] The diameter of the transplanted tumors is measured twice per week in the whole experimental process, and meanwhile the weight of the mice is weighed. The calculation formula of tumor volume (TV) is TV=½×a×b^2, where a and b represent length and width, respectively.
(§2) The relative tumor volume (RTV) is calculated according to the measured results, with the following calculation formula: RTV=Vt/V0, where V0 is the tumor volume obtained by measurement during administration in different cages (i.e., d0), Vt is the tumor volume obtained by measurement at each time. […] (Wc−WT)Wc×100%, where Wc is the tumor weight of the control group, and WT is the tumor weight of the treatment group.

Human Melanoma Cell A875 = test: Subcutaneously transplanted tumors in nude mice; type: in vivo; conditions: 20 mg/kg
Method: as §1, §2

[2] = tested on: Human Gastric Adenocarcinoma Cell BGC-823; test: Subcutaneously transplanted tumors in nude mice; type: in vivo; conditions: 20 mg/kg
Method: as §1, §2

[3] = tested on: Human Lymphoma Cell Ramos; test: Subcutaneously transplanted tumors in nude mice; type: in vivo; conditions: 20 mg/kg
Method: as §1, §2

[4] = tested on: Human Lung Caner Cell NCI-H1975; test: Subcutaneously transplanted tumors in nude mice; type: in vivo; conditions: 20 mg/kg
Method: as §1, §2

Incap = test: MTT cancer cell growth inhibition; type: cell-based; conditions: 72 h
HDAC1 = HDAC1 (Homo sapiens, UniProt Q13547); test: Measurement of biochemical activities of HDAC (fluorescently-labeled acetylated lysine substrate); conditions: read-out: IC50 HDAC1
In short: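 For both HDAC isoforms, fluorescent acetyl-lysine substrate ([…] in reaction) incubated with enzyme and compounds for 30 min at 37; developer then added for 15 min at room temperature. Fluorescence read at excitation 360 nm, emission 460 nm.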

[5] = tested on: MCF-7 (human breast cancer cells); test: MTT cancer cell growth inhibition; type: cell-based; conditions: MCF7, 72 h
In short: (§3)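 Absorbance at 570 nm of DMSO-dissolved formazan, after 4 h MTT labelling, gave cell survival rate. Before labelling, cells (1500/well, overnight attachment) were treated in triplicate for 72 h at 37 °C with compound at final 10^−5–10^−10 M; vehicle control 0.1% DMSO.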

[6] = tested on: A549 (human lung cancer cells); test: MTT cancer cell growth inhibition; type: cell-based; conditions: 72 h
In short: as §3

[7] = tested on: MOLT-4 (human acute lymphoblastic leukemia cells); test: MTT cancer cell growth inhibition; type: cell-based; conditions: 72 h
In short: as §3

PANC-1 = test: MTT cancer cell growth inhibition; type: cell-based; conditions: Homo sapiens, 72 h
In short: as §3

[8] = tested on: HT1080 (human fibrosarcoma cells); test: MTT cancer cell growth inhibition; type: cell-based; conditions: HT-1080, 72 h
In short: as §3

[9] = tested on: Hela (human cervical cancer cells); test: MTT cancer cell growth inhibition; type: cell-based; conditions: 72 h
In short: as §3

[10] = tested on: U937 (human leukemia cells); test: MTT cancer cell growth inhibition; type: cell-based; conditions: U-937, 72 h
In short: as §3

[11] = tested on: BGC-823 (human gastric cancer cells); test: MTT cancer cell growth inhibition; type: cell-based; conditions: 72 h, read-out: GI50 BGC823
In short: as §3

[12] = tested on: DU145 (human prostate cancer cells); test: MTT cancer cell growth inhibition; type: cell-based; conditions: DU-145, 72 h
In short: as §3

HDAC1, sequence (Q13547 whole entry, species assumed, canonical isoform): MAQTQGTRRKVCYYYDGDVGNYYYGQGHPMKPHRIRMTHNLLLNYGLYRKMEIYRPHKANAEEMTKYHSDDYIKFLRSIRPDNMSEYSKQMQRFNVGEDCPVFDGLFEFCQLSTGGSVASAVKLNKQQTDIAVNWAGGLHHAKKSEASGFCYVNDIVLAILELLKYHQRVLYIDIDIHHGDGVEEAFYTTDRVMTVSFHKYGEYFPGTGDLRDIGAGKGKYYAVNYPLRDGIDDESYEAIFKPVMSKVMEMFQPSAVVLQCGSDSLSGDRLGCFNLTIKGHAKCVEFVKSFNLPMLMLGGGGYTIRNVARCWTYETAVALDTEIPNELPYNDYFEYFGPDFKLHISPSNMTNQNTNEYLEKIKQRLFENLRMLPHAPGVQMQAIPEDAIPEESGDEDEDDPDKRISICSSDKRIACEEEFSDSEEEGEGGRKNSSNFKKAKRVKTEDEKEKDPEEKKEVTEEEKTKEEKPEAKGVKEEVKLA

C/C=C1\NC(=O)c2csc(n2)CNC(=O)C[C@@H](/C=C/CCSC(=O)CCCCCCC)OC(=O)[C@H](C(C)(C)C)NC1=O [Compound 1-6]
Tumor Inhibition Rate (1 − T/C) × 100% [1]: 66.37%
Tumor Inhibition Rate (1 − T/C) × 100% (Human Melanoma Cell A875): 66.64%
Tumor Inhibition Rate (1 − T/C) × 100% [2]: 60.26%
Tumor Inhibition Rate (1 − T/C) × 100% [3]: 60.94%
Tumor Inhibition Rate (1 − T/C) × 100% [4]: 59.19%
GI50 (Incap): 1200 nM
IC50 (HDAC1): < 10000 nM
GI50 [5]: 600 nM
GI50 [6]: 500 nM
GI50 [7]: 1000 nM
GI50 (PANC-1): 3000 nM
GI50 [8]: 1300 nM
GI50 [9]: 1000 nM
GI50 [10]: 200 nM
GI50 [11]: 400 nM
GI50 [12]: 50 nM

C/C=C1\NC(=O)c2csc(n2)CNC(=O)C[C@@H](/C=C/CCSC(=O)CCCCCCC)OC(=O)[C@H](Cc2ccccc2)NC1=O [Compound 1-7]
GI50 (Incap): 500 nM
IC50 (HDAC1): < 10000 nM
GI50 [5]: 700 nM
GI50 [6]: 400 nM
GI50 [7]: 100 nM
GI50 (PANC-1): 1500 nM
GI50 [8]: 300 nM
GI50 [9]: 5000 nM
GI50 [10]: 20 nM
GI50 [11]: 300 nM
GI50 [12]: 20 nM

C/C=C1\NC(=O)c2csc(n2)CNC(=O)C[C@@H](/C=C/CCSC(=O)CCCCCCC)OC(=O)[C@H](C(C)C)NC1=O [Compound 1-3]
Tumor Inhibition Rate (1 − T/C) × 100% [1]: 65.21%
Tumor Inhibition Rate (1 − T/C) × 100% (Human Melanoma Cell A875): 63.89%
Tumor Inhibition Rate (1 − T/C) × 100% [2]: 59.38%
Tumor Inhibition Rate (1 − T/C) × 100% [3]: 70.08%
Tumor Inhibition Rate (1 − T/C) × 100% [4]: 56.40%
GI50 (Incap): 2000 nM
IC50 (HDAC1): < 10000 nM
GI50 [5]: 1200 nM
GI50 [6]: 10000 nM
GI50 [7]: 1000 nM
GI50 (PANC-1): 6000 nM
GI50 [8]: 4000 nM
GI50 [9]: 1000 nM
GI50 [10]: 500 nM
GI50 [11]: 60 nM
GI50 [12]: 300 nM

O=C(CCCCCCC(=O)Nc1ccccc1)NO [SAHA, suberoylanilide hydroxamic acid, reference compound]
GI50 (Incap): 4560 nM
GI50 [5]: 1800 nM
GI50 [6]: 7700 nM
GI50 (PANC-1): 7460 nM
GI50 [8]: 3800 nM
GI50 [9]: 37800 nM
GI50 [10]: 2310 nM
GI50 [11]: 4500 nM

C/C=C1\NC(=O)c2csc(n2)CNC(=O)C[C@@H](/C=C/CCSC(=O)CCCCCCC)OC(=O)[C@H](C)NC1=O [Compound 1-4]
GI50 (Incap): 200 nM
IC50 (HDAC1): < 1000 nM
GI50 [5]: 200 nM
GI50 [6]: 2900 nM
GI50 [7]: 100 nM
GI50 (PANC-1): 1600 nM
GI50 [8]: 800 nM
GI50 [9]: 1300 nM
GI50 [10]: 30 nM
GI50 [11]: 2500 nM
GI50 [12]: 360 nM

C/C=C1\NC(=O)c2csc(n2)CNC(=O)C[C@@H](/C=C/CCSC(=O)CCCCCCC)OC(=O)[C@H](Cc2ccc(O)cc2)NC1=O [Compound 1-8]
Tumor Inhibition Rate (1 − T/C) × 100% [1]: 68.32%
Tumor Inhibition Rate (1 − T/C) × 100% (Human Melanoma Cell A875): 68.07%
Tumor Inhibition Rate (1 − T/C) × 100% [2]: 56.83%
Tumor Inhibition Rate (1 − T/C) × 100% [3]: 58.33%
Tumor Inhibition Rate (1 − T/C) × 100% [4]: 53.23%
GI50 (Incap): 200 nM
IC50 (HDAC1): < 102 nM
GI50 [5]: 100 nM
GI50 [6]: 100 nM
GI50 [7]: 20 nM
GI50 (PANC-1): 100 nM
GI50 [8]: 70 nM
GI50 [9]: 100 nM
GI50 [10]: 20 nM
GI50 [11]: 300 nM
GI50 [12]: 30 nM
